US20240336587A1, “CANNABICHROMENE DERIVATIVES AND METHODS FOR MAKING AND USING THE SAME” (University of Mississippi, priority 2021, published 2024)
Entries after “also recorded” stand apart in the source; their conditions may differ.

Legend:
[1] = tested on: inflammatory nociception (acetic acid-induced abdominal writhes) in C57BL/6 mice; experiment: Abdominal writhing test (acetic acid-induced writhes); type: in vivo; details: mouse; for efficacy in abdominal writhing (racemate, diastereoisomers, CBC vs vehicle): one-way ANOVA post-hoc Bonferroni, FIG. 4A
Procedure: (§1) CBC and CBC-val-HS were dissolved in a solution of 10% ethanol/10% cremophore and 80% saline. Mice received IP injection of test compounds in a volume of 1.0 ml/kg for the abdominal writhing assay and 1.0 ml/kg, IP in the hot plate assay. For pharmacokinetic studies, drug was given in a volume of 1.0 ml/kg for tail vein and oral gavage administration. CBC-val-HS doses were calculated to be the dose equivalent of CBC.
(§2) All experimental procedures were approved by the University of Mississippi Institutional Animal Care and Use Committee (Protocol #19-009). Animal studies reported in compliance with the ARRIVE guidelines. Male wild-type C57BL/6 mice (7-10 weeks, 17-30 grams) were used for all behavioral studies and Male CD-1 (6-7 weeks, 20-25 grams) were used for all pharmacokinetic studies. Mice were purchased from Envigo, (Indianapolis, IN, USA) and acclimated for one week prior to experimentation. Mice were group-housed (n=4-5) in a polycarbonate tub with soft bedding in a temperature (22°±2) and humidity-controlled vivarium under a normal 12:12 h light/dark cycle (lights on at 06:00) with food and water ad libitum. Behavioral testing was performed during the hours of 08:00-18:00 with 30-minute acclimation to the testing room for all studies. Mice were assigned treatments through random block assignment per cage and experimenters were blinded to treatment conditions. Equipment was thoroughly sanitized with 70% ethanol between mice.
Abdominal writhing testing was used to quantify inflammatory nociception. Testing was conducted in clear, open-top, acrylic observation chambers (12.7×15.24 cm) located on a smooth surface. Test compounds were administered IP 30 minutes prior to behavioral testing. For testing, mice were then given an IP injection of 0.7% acetic acid in a volume of 10.0 ml/1 kg and immediately placed in an observation chamber for 30-minute test. The number of abdominal writhes served as the dependent measure.

[2] = Pharmacokinetic study, plasma levels by LC-MS-MS; type: in vivo, mouse
Procedure: as §1, §2
A pharmacokinetic study of CBC and CBC-val-HS was conducted using either intraperitoneal (IP), oral gavage, or and intravenous (IV; lateral tail vein) administration routes. For each route, four to five subjects were sacrificed at 0, 0.05, 0.25, 0.5, 1, 2, 4, 8, and 24 hr after drug administration. Mice were anesthetized with isoflurane, and whole blood was collected by cardiac puncture. Plasma was isolated by centrifugation (2000 rpm, 5 min) and stored at −80° C. until assayed.
For CBC in the plasma samples were extracted using solid phase cartridges. CBC-VHS plasma samples were diluted with cold acetonitrile, sonicated, centrifuged, transferred supernatant to another extraction tube, evaporated the solvent and reconstituted with acetonitrile for the analysis. The LC-MS-MS system consists of a Shimadzu Prominence UHPLC with a dual pump, a vacuum solvent micro-degasser, a controlled-temperature auto-sampler, and an MS-MS detector (Applied Biosystems/MSD Sciex QTRAP 4500/3200 with a turbo-ion ESI source operating the positive-ion multiple reaction monitoring, or MRM, mode). […] Deuterated internal standard D3-CBC was used for the quantitation of CBC and CBCVHS. The peak area corresponding to each extracted MRM was measured and correlated to a multiple point calibration curve to determine the plasma concentration of each analyte. […]

[3] = tested on: thermal nociception in C57BL/6 mice; experiment: Hot plate test (thermal nociception, 52° C.); type: in vivo; details: mouse, IP 30 minutes prior; FIG. 4B
Procedure: as §1
as §2, with “Mice were assigned treatments through random block assignment per cage and experimenters were blinded to treatment conditions. Equipment was thoroughly sanitized with 70% ethanol between mice.” left out
The hot plate (Harvard Instruments, Model #52-8570) was used to quantify thermal nociception. […]

[4] = after parenteral administration; cited from earlier work
[5] = tested on: paw edema; details: restricted to high doses of over 100 mg/kg; cited from earlier work
[6] = tested on: intestinal inflammation; details: far lower doses; cited from earlier work
[7] = tested on: nociception; details: effect was time-dependent; cited from earlier work

CCCCCc1cc(OC(=O)C(NC(=O)CCC(=O)O)C(C)C)c2c(c1)OC(C)(CCC=C(C)C)C=C2 (racemic) [CBC-Val-HS, cannabichromene-valinate-hemisuccinate]
number of acid-induced abdominal writhes ([1]; increasing doses, IP 30 minutes prior to acetic acid injection, FIG. 2): significantly decreased
overall efficacy or potency in comparison to CBC, abdominal writhing ([1]; IP, two-way ANOVA, drug factor F=1.62, p=0.38): No differences in overall efficacy or potency; also recorded: equally efficacious
efficacy in abdominal writhing (racemate, diastereoisomers, CBC vs vehicle) [1]: as effective as CBC
peak concentration relative to peak concentration of CBC at the same dose equivalent ([2]; intravenous administration, in the hour following administration, FIG. 3A): greater than 10 × higher
chemical entity detected in circulating plasma ([2]; parenteral or oral administration to animals): the major chemical component detected in the circulating plasma is the intact CBC-Val-HS; also recorded: a majority of CBC-Val-HS remained intact in circulation
fraction observed in the plasma as intact CBC-Val-HS ([2]; plasma after administration): two-thirds
fraction of the derivative observed in the plasma as free CBC ([2]; plasma after administration): about one-third
latency to hotplate withdrawal (anti-nociception against thermal pain) [3]: displayed anti-nociceptive potential

CCCCCc1cc(OC(=O)C(NC(=O)CCC(=O)O)C(C)C)c2c(c1)OC(C)(C)C1CCC(C)=CC21 (centres unmarked) [THC-Val-HS]
presence of the Val-HS derivative in plasma (comparator cannabinoid derivatives) [4]: not found in plasma

C=C(C)C1CCC(C)=CC1c1c(OC(=O)[C@@H](NC(=O)CCC(=O)O)C(C)C)cc(CCCCC)cc1OC(=O)[C@@H](NC(=O)CCC(=O)O)C(C)C (some centres unmarked) [CBD-Val-HS]
presence of the Val-HS derivative in plasma (comparator cannabinoid derivatives) [4]: the only entity found in the plasma

CCCCCc1cc(O)c2c(c1)OC(C)(CCC=C(C)C)C=C2 (centres unmarked) [CBC, Cannabichromene]
anti-inflammatory / anti-edematous properties in vivo [5]: mild anti-inflammatory, or anti-edematous properties
efficacy in abdominal writhing (racemate, diastereoisomers, CBC vs vehicle) [1]: effective
activity against intestinal inflammation in vivo [6]: protective activity
anti-nociceptive effect in tail-flick [7]: biphasic anti-nociceptive effects
